Measured values: US20060292203A1, “Methods and compositions for the treatment of ocular disorders” (TargeGen, Inc., priority 2005, published 2006)
≈ marks a conversion by molar mass, not a printed value.

Tests used:
Water solubility (pH 5) = details: for Water solubility: pH 5; for solubility: pH 5, water
[1] = Phospholipid affinity PC:Drug (molar); type: physicochemical; details: molar ratio PC:Drug
[2] = tested on: choroidal neovascularization; assay: Laser-induced choroidal neovascularization model; type: in vivo, C57BL/6 mice; details: for Reduction of area of neovascularization compared to control: topical
Experimental: After 2 weeks, mice were perfused with fluorescein-labeled dextran, and choroidal flatmounts were analyzed using image analysis software to recognize fluorescently stained neovascularization and calculate the total area of neovascularization per retina.

[3] = tested on: VEGF-induced retinal permeability; assay: Ocular model of retinal edema following eyedrops (Evans Blue albumin leakage); type: in vivo; details: mice
Experimental: Formulations prepared as described in Examples 20 and 21 were used in these studies. Topical eyedrops of Compound (V) (one time or three times a day), or Compound (VI) (single eye drop) were administered to mice. After 1-2 hr, VEGF was injected intravitreally into mouse eyes. An hour later Evans Blue dye was injected intravenously into the tail vein. About 4 hrs later animals were sacrificed, blood was collected and eyes were enucleated. VEGF-induced retinal permeability as measured by albumin leakage in the eye was measured.

[4] = Pharmacokinetic study of Compound (VI) after topical administration (Example 14); type: in vivo, Dutch-Belted rabbits; details: BID for three days vs QD for three days, 1% dose
Experimental: A formulation prepared as described in example 13 was used. Compound (VI) was administered topically (50 μL) to rabbits either as BID for three days or QD for three days dose regimen (1% dose).

[5] = Pharmacokinetic study of Compound (XI) after topical administration (Example 3); type: in vivo, Dutch-Belted rabbits; details: eyedrops 1% API, 50 μL BID for 3 days; rabbit
Experimental: A formulation was prepared as in Example 1 but using Compound (XI) instead of Compound (V). Compound (XI) was administered as eyedrops (1% API, 50 μL) BID for 3 days. On day 3 following a single dose, rabbits were sacrificed, enucleated and various ocular tissues (retina, choroid, cornea, etc) collected. Concentrations in the tissues were measured using LC/MS/MS, following tissue homogenization and acetonitrile precipitation. PK data analysis was conducted using WINNONLIN program. […] Half-life was long at approximately 8 hours.

[6] = Pharmacokinetic study of Compound (V) after topical administration (Example 4); type: in vivo, Dutch-Belted rabbits; details: 50 μL topical, 0.5% dose, QD for one day; rabbit
Experimental: A formulation containing Compound (V) prepared as described in Example 1 was used in this experiment. 50 μL of Compound (V) (QD for one day) was administered topically to rabbits at 0.5% dose. Ocular tissues such as choroid, retina, sclera and cornea were collected and concentrations measured. Choroidal concentrations were 4 fold higher than retinal concentration.

[7] = Pharmacokinetic study of Compound (VI) after topical administration (Example 8); type: in vivo, Lone Evans rat pups; details: Compound (V) analysed after single 10 μL eyedrops of 0.2, 0.5 or 1% Compound (VI)
Experimental: Formulations prepared as described in Example 5 were used. Rat pups were administered single 10 μL eyedrops of 0.2, 0.5 or 1% Compound (VI) dose. Eye tissues were collected at various time points for Compound (V) analysis using LC/MS/MS. […] Half-life of Compound (V) ranged from 5 to 8 hours in the choroids.

[8] = Pharmacokinetic study of Compounds (X) and (VIII) after topical administration (Example 12); type: in vivo, Dutch-Belted rabbits; details: Compound (V) after prodrug Compound (VIII) delivered topically to the eye
Experimental: Formulations prepared as described in Example 9 and 11 were used. Compounds (X) and (VIII) were administered as eyedrops (50 μL) either as QD for three days or BID for three days as the dose regimen.
The retinal concentrations varied depending on the formulation used. The cLogD at pH of 7.4 for Compound (VIII) is 0.14 while for Compound (X) is 3.54.

| solubility (Water solubility (pH 5); water) | Molecule | further results |
| --- | --- | --- |
| < 0.1 mg/mL | Cc1cccc(C)c1-c1cc(C)c2nc(Nc3ccc(S(=O)(=O)NCCN4CCCC4)cc3)nnc2c1 [XIII] |  |
| < 0.1 mg/mL | Cc1cc(-c2c(Cl)ccc(O)c2Cl)cc2nnc(Nc3ccc(S(=O)(=O)NCCN4CCCC4)cc3)nc12 [XVI] |  |
| > 2 mg/mL | Clc1ccc(Nc2nnc(Cc3ccncc3)c3ccccc23)cc1 [Vatalanib, reference compound] | Phospholipid affinity PC: Drug (molar) [1]: Not stable |
| < 0.1 mg/mL | Cc1cc(-c2cc(OC(=O)C(C)(C)C)ccc2Cl)cc2nnc(Nc3ccc(OCCN4CCCC4)cc3)nc12 [X] |  |
| < 0.1 mg/mL | CC(=O)Oc1ccc(Cl)c(-c2cc(C)c3nc(Nc4ccc(OCCN5CCCC5)cc4)nnc3c2)c1 [XVII] |  |
| < 0.1 mg/mL | Cc1cc(-c2cc(OC(=O)C(C)C)ccc2Cl)cc2nnc(Nc3ccc(OCCN4CCCC4)cc3)nc12 [XX] |  |
| < 0.1 mg/mL | Nc1nc(O)c2nc(-c3cccc(O)c3)c(-c3cccc(O)c3)nc2n1 [XXI] |  |
| < 0.1 mg/mL | Cc1cc(-c2cc(O)ccc2Br)cc2nnc(Nc3ccc(S(=O)(=O)NCCN4CCCC4)cc3)nc12 [XV] |  |
| < 0.1 mg/mL | Cc1cc(-c2c(Cl)cccc2Cl)cc2nnc(Nc3ccc(OCCN4CCCC4)cc3)nc12 [XI] |  |
| < 0.1 mg/mL | Cc1ccc(C(=O)Oc2ccc(Cl)c(-c3cc(C)c4nc(Nc5ccc(OCCN6CCCC6)cc5)nnc4c3)c2)cc1 [XIX] |  |
| < 0.1 mg/mL | Cc1cc(-c2cc(OC(=O)c3ccccc3)ccc2Cl)cc2nnc(Nc3ccc(S(=O)(=O)NCCN4CCCC4)cc3)nc12 [XVIII] |  |

More lines, now with the values behind:

| Molecule | solubility (Water solubility (pH 5); water) | further results |
| --- | --- | --- |
| Tropicamide [reference compound] |  | Water solubility (Water solubility (pH 5)): <1 mg/mL |
| CC(C)NCC(O)COc1cccc2ccccc12 (stereo not drawn) [propanolol, reference compound] |  | solubility (Water solubility (pH 5)): ~0.1 mg/mL (≈ 386 µM) |
| Brc1c(NC2=NCCN2)ccc2nccnc12 [Brimonidine, reference compound] | > 2 mg/mL |  |
| Cc1cc(-c2cc(OC(=O)c3ccccc3)ccc2Cl)cc2nnc(Nc3ccc(OCCN4CCCC4)cc3)nc12 [VI] | < 0.1 mg/mL | Reduction of area of neovascularization compared to control ([2]; 50 μg per eye): approximately 47%; Reduction of area of neovascularization compared to control ([2]; 150 μg per eye): approximately 35%; Effect on choroidal neovascularization (FIG. 2) ([2]; topical administration): prevents choroidal neovascularization; Inhibition of retinal leak ([3]; QD eyedrop administration): 100%; Back of the eye concentrations, dependence on dose regimen [4]: linear |
| Cc1cccc(C)c1-c1cc(C)c2nc(Nc3ccc(OCCN4CCCC4)cc3)nnc2c1 [IV] | < 0.1 mg/mL |  |
| C=CC[C@@H]1/C=C(\C)C[C@H](C)C[C@H](OC)[C@H]2O[C@@](O)(C(=O)C(=O)N3CCCC[C@H]3C(=O)O[C@H](/C(C)=C/[C@@H]3CC[C@@H](O)[C@H](OC)C3)[C@H](C)[C@@H](O)CC1=O)[C@H](C)C[C@@H]2OC [Tacrolimus, reference compound] | < 0.1 mg/mL |  |
| Cc1cc(-c2cc(O)ccc2Cl)cc2nnc(Nc3ccc(S(=O)(=O)NCCN4CCCC4)cc3)nc12 [VII] | < 0.1 mg/mL |  |
| CC(C)CCC[C@@H](C)[C@H]1CC[C@H]2[C@@H]3CC=C4C[C@@H](O)CC[C@]4(C)[C@H]3CC[C@]12C [Cholesterol, reference compound] | < 1 mg/mL |  |
| Cc1cc(-c2cc(O)ccc2Cl)cc2nnc(Nc3ccc(OCCN4CCCC4)cc3)nc12 [V] | < 0.1 mg/mL | Concentrations in the choroid [5]: at the μM level; Choroidal concentration relative to retinal concentration [6]: 4 fold; Half-life (comparison) [6]: about two times longer; Concentrations in the retina, dose dependence [7]: non-linear; Mean AUC in the choroid, dose dependence [7]: linear; Inhibition of retinal leak ([3]; QD eyedrop administration): 50%; Inhibition of retinal leak ([3]; TID eyedrop dosing): ~80%; Amount of API recovered from the retina and the choroid [8]: No measurable amount |
| CC(=O)Nc1nnc(S(N)(=O)=O)s1 [Acetazolamide, reference compound] | < 1 mg/mL |  |
| Cc1cc(-c2cc(OP(=O)([O-])[O-])ccc2Cl)cc2nnc(Nc3ccc(OCCN4CCCC4)cc3)nc12.[Na+].[Na+] [XII] | < 0.1 mg/mL |  |
| O=C(Nc1cnc(Nc2cccc(OCCN3CCCC3)c2)nc1)c1c(Cl)cccc1Cl [I] | < 0.1 mg/mL |  |
| Cc1cc(Nc2ncc3cc(-c4c(Cl)cccc4Cl)c(=O)n(C)c3n2)ccc1F [PD180970, reference compound] |  | Water solubility (Water solubility (pH 5)): <<0.1 mg/mL |
| COc1ccc(Cl)c(Nc2ncnc3cc(OCC4CCN(C)CC4)c(OC)cc23)c1 [AZM475271, reference compound] | < 0.1 mg/mL | Phospholipid affinity PC: Drug (molar) [1]: 50.73 |
| CC1(C)O[C@@H]2C[C@H]3[C@@H]4CCC5=CC(=O)C=C[C@]5(C)[C@@]4(F)[C@@H](O)C[C@]3(C)[C@]2(C(=O)CO)O1 [TAA, reference compound] |  | Water solubility (Water solubility (pH 5)): <0.1 mg/mL |
| CCN(CC)CCNC(=O)c1c(C)[nH]c(/C=C2\C(=O)Nc3ccc(F)cc32)c1C [Su11248, reference compound] | > 1 mg/mL |  |
| Cc1ccc(-c2nn(C(C)(C)C)c3ncnc(N)c23)cc1 [PP1, reference compound] |  | Water solubility (Water solubility (pH 5)): <0.1 mg/mL |
| COc1cc(Nc2c(C#N)cnc3cc(OCCCN4CCN(C)CC4)c(OC)cc23)c(Cl)cc1Cl [SKI606, reference compound] | < 1 mg/mL |  |
| CP(C)(=O)c1ccc(Nc2nc(C3CCCC3)nc3c2ncn3CCc2cccc(O)c2)cc1 [AP23464, reference compound] |  | Water solubility (Water solubility (pH 5)): >0.1 mg/mL |
